“And” between values parts separate entries of the source, which are not always exact repeats. Equal entries are not always repeated. Marks after values point to notes of the source that are not given here.

The results in this text go back to patent US20220218834A1, “APOHEMOGLOBIN-HAPTOGLOBIN COMPLEXES AND METHODS OF USING THEREOF” (OHIO STATE INNOVATION FOUNDATION, priority 2019, published 2022).

A short description of assay [1]: O2 equilibrium binding curves of rHb and native Hb (Hemox analyzer). In kind it is biochemical. As to conditions: 37° C.; for P50: O2 affinity; for N (cooperativity coefficient n): O2 equilibrium. On the procedure: rHb Analysis. Various liganded forms of rHb were analyzed via UV-Vis spectroscopy and compared against native Hb. The oxy-rHb and oxyHb equilibrium binding curves were measured using a Hemox analyzer (TCS Scientific Corp., New Hope, Pa.) at 37° C. The spectra of rHb was measured after one day reaction with excess heme (stage 1), after reduction and diafiltration with the modified HEMOX buffer (stage 2), after placing the rHb mixture under a CO atmosphere (stage 3), after heating the CO-rHb mixture and removing precipitate (stage 4), and after re-oxygenating the rHb sample (stage 5). Spectral deconvolution software was developed in the Python programming language (Python Software Foundation Beaverton, Oreg.) using the non-linear least squares function curve_fit of the SciPy package to determine the fraction of various liganded forms of rHb that contribute to the final spectra of the rHb mixture (i.e. containing metHb, hemichrome, oxyHb, HbCO and heme).

Assay [2] can be described thus: Specificity of Al-PC binding to proteins (UV-visible absorbance at 680 nm). As to conditions: absorbance at 680 nm after Al-PC addition in PBS.
Protocol: The stock Al-PC solution was diluted 100× into 100% EtOH.
The concentrations of Hp, HSA, Hb and rHb in solution were 1.0 mg/mL, 0.35 mg/ml (and 3.5 mg/ml), 0.35 mg/mL, and 0.33 mg/mL respectively.

Turning to “TFF rHb Concentrated: reconstituted Hb made from concentrated TFF-apoHb”, in assay [1], the P50 was 11.36 ± 0.87 mm Hg and the “N (cooperativity coefficient n)” value is 2.14 ± 0.17^a. In addition, in assay [1] (listed as concentrated rHb), the P50 worked out at 11.36±0.87 mm Hg and the “N (cooperativity coefficient n)” value was found to be 2.14±0.17.

For “TFF rHb: reconstituted Hb made from TFF-apoHb and heme”, in assay [2], the Al-PC binding entry is on record as “no appreciable binding of Al-PC”. The P50 in assay [1] is 11.52±0.02 mm Hg and 11.20 ± 0.43 mm Hg; in assay [1] (listed as unconcentrated rHb), 11.20±0.43 mm Hg. Besides, the “N (cooperativity coefficient n)” value in assay [1] (listed as unconcentrated rHb) worked out at 2.27±0.10.
